Entries after “also recorded” stand apart in the source; their conditions may differ.
Columns and labels:
TREM-1 = test: CARD9-MALT1-BCL10 complex formation (immunoprecipitation) in neutrophils; assay type: cell-based, human; conditions: peptide 30 μg/mL
Method: (B) CARD9-MALT1-BCL10 complex formation: Immunoblot of MALT-1 after immunoprecipitation with anti-BCL10 mAb of lysates of neutrophils stimulated for 20 minutes.
(B) […] complex formation: Immunoblot of MALT-1 after immunoprecipitation with anti-BCL10 mAb of lysates of neutrophils stimulated for 20 minutes.
Cells were lysed with CytoBuster Protein Extraction Reagent (Novagen). Samples were normalized by total protein concentration and lysates were pre-cleared before performing Immunoprecipitation. Pre-cleared lysates were then incubated overnight at 4° C. with rabbit-anti-Bcl10 mAb (Cell Signaling) or rabbit-anti-CARD9 (Antibodies Online). Thereafter, anti-rabbit-Ig beads (eBioscience) were added for 1 hour at room temperature. Beads were then washed 3 times, denatured in Laemli buffer 5 minutes at 95° C. and centrifuged at 16,000 g for 1 min.

[1] = tested on: TREM-1 ligand expressed on resting or thrombin-activated human platelets; test: Flow cytometry binding of FITC-labelled peptides to human platelets
Method: (B) Flow cytometry analysis of FITC-labelled LR17 (1 or 5 μg/mL) binding to TREM-1 ligand expressed on resting or thrombin-activated (5 UI/mL) human platelets is reversed by co-incubation with unlabelled LR17, sTLT-1 or LP17, a TREM-1 derived peptide.
Acid Citrate Dextrose blood samples were centrifuged (100 g, 10 min) to obtain Platelet-Rich Plasma. PRP was then centrifuged (550 g, 10 min) over a 36% (wt/vol) BSA gradient and platelets collected from the interphase before being washed in Tyrode's salts buffer (Sigma-Aldrich) supplemented with 5 mM EGTA. For activation, platelets were incubated for 30 minutes with 5 U/mL thrombin (Sigma-Aldrich) or 1 μg/mL E. Coli LPS (0111:B4, Sigma-Aldrich) at 37° C. and subsequently fixed with 2% (wt/vol) paraphormaldehyde (PFA, Sigma-Aldrich). Residual PFA was removed by two additional washing steps in Tyrode buffer. Activation was assessed by anti-CD62P (Beckman Coulter).
(§1) Isolated cells (neutrophils, monocytes or platelets) were blocked for aspecific binding with 10% human Ig (Sigma-Aldrich) for 1 hour on ice. Cells were incubated with recombinant soluble FITC-labelled TLT-1-peptides, FITC-labelled LP17 (or corresponding FITC-labelled scrambled peptides), PE-labelled anti-TREM-1 mAb (R&Dsystems), CD62P-FITC, CD66b-PE, CD45-PE, CD14-FITC (all from Beckman Coulter)

neutrophils or monocytes = test: Flow cytometry binding to neutrophils or monocytes; parameters: species or system human; conditions: cells not expressing TREM-1 ligand
Method: PMNs were isolated by a Sodium Diatrizoate 13.8%/Dextran 500 8.0% density gradient (polymorphprep, AbCys). Monocytes were isolated by negative cell-sorting of PB-MNCs by Monocytes Isolation Kit II (Miltenyi). Cells were then washed twice with PBS (BioMerieux) and resuspended in complete medium (RPMI 1640 containing 100 UI/mL penicillin, 100 μg/mL streptomycin, […] Amphotericin B and 10% FCS, Eurobio) before stimulation. Purity was assessed by flow cytometry (anti-CD45, -CD14 and -CD66b, Beckman Coulter).
as §1

male Balb/c mice = test: LPS-induced endotoxemia in mice; assay type: in vivo, mouse
Method: Male Balb/c mice (20-23 g) were randomly grouped (15 mice per group) and treated with an LD50 of LPS. LR17 (100 μg or 250 μg in 0.2 mL NaCl 0.9%), scrambled-LR17 (100 μg in 0.2 mL NaCl 0.9%), or 0.2 mL NaCl 0.9% was administered 60 min before or 60 minutes after LPS. 4-6 animals per group were sacrificed upon penthotal overdose at 2 and 4 hours after LPS injection and blood was sampled through cardiac puncture. Results are mean±SD. p values are *p<0.05, **p<0.01, ***p<0.001 compared with control animals.
After approval by the local ethical committee, male Balb/c mice (4-6 weeks) were randomly grouped and treated with LPS i.p. in combination with LR17 (in 250 μL normal saline) or LR17-scrambled 1 hour before or after LPS challenge. The viability of mice was examined every hour, or animals were killed at regular intervals. Serum samples were collected by cardiac puncture and assayed for cytokines and sTREM-1 levels by ELISA (R&Dsystems).

[2] = competition with unlabelled substance

LQEEDAGEYGCMVDGAR (listed as Homo sapiens) [LR17]
CARD9-MALT1-BCL10 complex formation (TREM-1; LPS 0.1 μg/mL with or without αTREM-1): decreased | CARD9-MALT1-BCL10 complex formation (TREM-1; αTREM-1 5 μg/mL, 20 minutes): reversed | binding of FITC-labelled LR17 to platelets ([1]; FITC-labelled peptide 1 or 5 μg/mL, resting or thrombin-activated (5 UI/mL) platelets): binds both to resting and thrombin-activated platelets | effect of co-incubation on FITC-labelled LP17 binding to platelets [1, 2]: decreased | effect of co-incubation on FITC-labelled LR17 binding to platelets [1, 2]: reversed | binding to neutrophils or monocytes (neutrophils or monocytes): did not bind | serum levels of TNF-α, IL-6, IL-10 and sTREM-1 (male Balb/c mice; 2 and 4 h, pre- and post-treatment, versus controls): reduced | survival curve (male Balb/c mice; Log Rank test, p=0.0032): confers a survival advantage | survival, delayed treatment (male Balb/c mice; injected 1 hour after LPS): significant protection | comparison of doses (250 μg vs 100 μg) or injection times (male Balb/c mice; mouse, in vivo): no differences between doses or injection times; also recorded: did not confer advantage | late death (male Balb/c mice; over 10 days): No late death occurred | survival (male Balb/c mice; single i.p. dose 60 min before LPS (LD50, 25 mg/kg)): All LR17-treated animals survived
